Measurements reported in patent US20210379066A1, “COMBINATIONS OF POSITIVE ALLOSTERIC MODULATORS AND NICOTINIC ACETYLCHOLINE RECEPTOR AGONISTS FOR TREATING OCULAR CONDITIONS” (Oyster Point Pharma, Inc., priority 2018, published 2021).
Several values for one entry are separate records, joined by “and”; a condition that tells them apart may be missing. Equal values may be shown once. Read-outs that look alike come from different tables or passages of the source.

Key:
[1] = target: nAChR subtype alpha3beta2 (Homo sapiens, UniProt P17787+P32297); assay: Agonist characterisation versus ACh response (description); assay type: cell-based
Text: nAChR agonist response, from which receptor activation can be determined can, for example, be generated using an appropriate cell-based assay. Cells designed to express a particular nAChR receptor subtype and generate an electrical current response when bound to and activated by a nAChR agonist can be used to characterize the agonist profile of a compound and the amount of receptor activation thus determined. An example of a generic protocol is described below.
Cells that express a particular human nAChR subtype are first exposed to ACh. ACh binds and activates the receptor, thereby evoking a current. The concentration of the ACh is chosen to elicit the maximum response of the receptor (e.g., 1280 micromolar ACh). This current is recorded as the ACh response and serves as the 100% nAChR agonist response and to which responses to other nAChR agonists are compared. After washing, the cells are exposed to a nAChR agonist at various concentrations (e.g., 0.1, 0.3, 1, 3, 10, 30, 100, and 300 micromolar). The current evoked by exposure to the nAChR agonist is measured and recorded for each nAChR concentration. This nAChR agonist response data is then normalized to unity versus the maximal ACh evoked current and plotted as a function of the logarithm of the nAChR agonist concentration. The nAChR agonist response is then calculated as a percentage of the ACh response.

[2] = target: T1, human nAChR alpha4alpha6beta2 (Homo sapiens, UniProt P17787+P43681+Q15825); assay: Agonist activity, two-electrode voltage clamp in Xenopus oocytes (Example 5); assay type: cell-based; conditions: versus ACh response
T1 construct: expressed in transfected cells; host or cells: Xenopus laevis oocytes (cDNA injection)
Experimental: All experiments were carried out at human nAChRs expressed in Xenopus oocytes using the method of cDNA expression. Xenopus oocytes were prepared and injected using standard procedures.
Briefly, ovaries were harvested from Xenopus Laevis females that have been deeply anesthetized by cooling at 4° C. and Tricaine methanesulfonate (MS-222 at a concentration of 150 mg/L) in sodium bicarbonate (300 mg/L). Once anesthetized the animal was decapitated and pithed following the rules of animal rights from the Geneva canton. A small piece of ovary was isolated for immediate preparation while the remaining part was placed at 4° C. in a sterile Barth solution containing in mM NaCl 88, KCl 1, NaHCO32.4, HEPES 10, MgSO4.7H2O 0.82, Ca(NO3)2.4H2O 0.33, CaCl2.6H2O 0.41, at pH 7.4, and supplemented with 20 μg/ml of kanamycin, 100 unit/ml penicillin. All recordings were performed at 18° C. and cells superfused with OR2 medium containing in mM: NaCl 88, KCl 2.5, HEPES 5, CaCl2.2H2O 1.8, MgCl2.6H2O 1, pH 7.4.
Currents evoked by ACh or other agonists were recorded using an automated process equipped with standard two-electrode voltage-clamp configuration (TEVC). Data were captured and analyzed using a HiQScreen proprietary data acquisition and analysis software running under Matlab (Mathworks Inc.).
Agonist Preparation: See Example 1. […] The test concentration of acetylcholine chloride was 1280 micromolar.
Experimental Procedures: Injections of cDNAs encoding for the human alpha3beta4, alpha3alpha5beta4, alpha4beta2, alpha4alpha6beta2, and alpha7 were performed in at least 95 oocytes using a proprietary automated injection device. Cellular receptor expression was examined at least two days later. Oocytes were poked with two electrodes and their membrane potential maintained, unless indicated, at −80 mV throughout the experiment.
A protocol to determine agonistic activity in the oocytes expressing the nAChRs was developed. Oocytes expressing a nAChR subtype were exposed to a brief test pulse of acetylcholine (1280 micromolar) while the holding current and response was evaluated. Cells displaying robust currents were washed for 90 seconds. The cells were then exposed to a series of increasing concentrations of a nAChR agonist for 10 seconds each at two minute intervals. The nAChR agonist test concentrations were 0.1, 0.3, 1, 3, 10, 30, 100, 300 (micromolar). The current evoked from exposure to the agonist at each concentration was recorded. For oocytes expressing alpha7 nAChRs, exposure to the agonist was reduced to 5 seconds. This process was repeated for each agonist tested against each type of nAChR expressing cell.

[3] = Pharmacokinetics in human subjects after 28 days of intranasal administration (Example 7); assay type: in vivo
Experimental: Blood plasma for the patients was collected on Day 29 predose (time 0) and after a series of time points (10 min, 20 min, 30 min, 1 hr, 2 hrs, 4 hrs, 5 hrs, 6 hrs, 7 hrs, 8 hrs, and 24 hrs) after a single administration of drug. The blood plasma was analyzed for Compound 1.
The following pharmacokinetic parameters for Compound 1 were calculated: • Cmax: Maximum observed concentration, observed by inspection of individual study participant plasma concentration time plots. • Tmax: Time of maximum observed concentration, obtained directly from the observed concentration time data. • AUClast: The area under the plasma concentration time curve, from time 0 to the last measurable non-zero concentration, calculated by a combination of linear and logarithmic trapezoidal methods (Linear up/log down method). • AUC0-4h: The area under the plasma concentration time curve, from time 0 to the 4 h time point, calculated by a combination of linear and logarithmic trapezoidal methods (Linear up/log down method). • AUCinf: The area from zero time (pre-dose) extrapolated to infinite time (AUCinf) will be calculated as follows: AUCinf=AUClast+Cz/λz. • AUC % Extrap: The percentage of AUCinf obtained by extrapolation (AUC % Extrap) will be calculated as follows:
[formula] • Half-life: Terminal elimination half-life.

[4] = Max, N=7, Day 29 dose after 28 days BID
[5] = Min, N=7, Day 29 dose after 28 days BID
[6] = human, plasma, other: intranasal spray, […] Compound 1, 50 μL spray in each nostril, Max, N=7, Day 29 dose after 28 days BID
[7] = human, plasma, other: intranasal spray, […] Compound 1, 50 μL spray in each nostril, Mean, N=7, Day 29 dose after 28 days BID
[8] = human, plasma, other: intranasal spray, […] Compound 1, 50 μL spray in each nostril, Median, N=7, Day 29 dose after 28 days BID

Sequence of nAChR subtype alpha3beta2 (P32297 32-505): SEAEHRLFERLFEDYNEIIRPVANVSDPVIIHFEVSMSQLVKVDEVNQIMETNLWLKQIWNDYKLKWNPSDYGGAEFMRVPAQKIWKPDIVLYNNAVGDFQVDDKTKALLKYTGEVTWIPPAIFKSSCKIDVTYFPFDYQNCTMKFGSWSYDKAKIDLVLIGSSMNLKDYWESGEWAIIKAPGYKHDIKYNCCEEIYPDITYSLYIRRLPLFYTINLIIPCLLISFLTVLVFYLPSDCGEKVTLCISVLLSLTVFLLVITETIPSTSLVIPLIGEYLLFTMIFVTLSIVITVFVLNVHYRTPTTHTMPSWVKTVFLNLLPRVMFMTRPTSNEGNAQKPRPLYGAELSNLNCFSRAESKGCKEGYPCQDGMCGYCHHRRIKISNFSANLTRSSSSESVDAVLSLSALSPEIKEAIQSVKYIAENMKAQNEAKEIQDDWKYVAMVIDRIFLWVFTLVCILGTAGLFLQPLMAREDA
Sequence of nAChR subtype alpha3beta2 (P17787 26-502): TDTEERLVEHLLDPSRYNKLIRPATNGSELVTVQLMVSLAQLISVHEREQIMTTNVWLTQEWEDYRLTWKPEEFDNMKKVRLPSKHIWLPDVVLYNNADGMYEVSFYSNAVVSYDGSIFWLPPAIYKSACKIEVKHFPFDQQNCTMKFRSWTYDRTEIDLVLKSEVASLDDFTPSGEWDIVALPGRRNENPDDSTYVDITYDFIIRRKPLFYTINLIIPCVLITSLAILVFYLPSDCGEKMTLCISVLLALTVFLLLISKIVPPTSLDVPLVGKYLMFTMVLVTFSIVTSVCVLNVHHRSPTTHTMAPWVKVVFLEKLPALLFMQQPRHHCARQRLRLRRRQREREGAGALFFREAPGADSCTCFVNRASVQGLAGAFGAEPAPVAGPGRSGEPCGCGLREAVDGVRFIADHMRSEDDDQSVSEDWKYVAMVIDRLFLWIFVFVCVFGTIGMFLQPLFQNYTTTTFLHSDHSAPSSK
T1 sequence (P43681 29-627 limits assumed): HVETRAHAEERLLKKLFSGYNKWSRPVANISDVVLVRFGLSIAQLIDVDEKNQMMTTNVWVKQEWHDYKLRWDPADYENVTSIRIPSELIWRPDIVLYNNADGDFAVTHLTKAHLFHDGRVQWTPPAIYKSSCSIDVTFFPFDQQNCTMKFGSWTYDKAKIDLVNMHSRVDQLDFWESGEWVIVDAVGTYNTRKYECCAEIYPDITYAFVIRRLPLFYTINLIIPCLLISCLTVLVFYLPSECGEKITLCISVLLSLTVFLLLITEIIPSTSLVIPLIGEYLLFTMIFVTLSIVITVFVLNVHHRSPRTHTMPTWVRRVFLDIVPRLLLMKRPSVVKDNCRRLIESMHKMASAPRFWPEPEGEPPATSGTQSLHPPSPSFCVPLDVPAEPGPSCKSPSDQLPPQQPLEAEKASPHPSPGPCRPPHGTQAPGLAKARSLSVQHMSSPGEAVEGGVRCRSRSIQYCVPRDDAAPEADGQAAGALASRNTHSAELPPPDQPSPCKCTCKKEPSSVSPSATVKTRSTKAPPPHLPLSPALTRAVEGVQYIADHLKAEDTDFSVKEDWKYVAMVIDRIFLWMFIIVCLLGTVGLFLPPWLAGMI
T1 sequence (Q15825 26-494): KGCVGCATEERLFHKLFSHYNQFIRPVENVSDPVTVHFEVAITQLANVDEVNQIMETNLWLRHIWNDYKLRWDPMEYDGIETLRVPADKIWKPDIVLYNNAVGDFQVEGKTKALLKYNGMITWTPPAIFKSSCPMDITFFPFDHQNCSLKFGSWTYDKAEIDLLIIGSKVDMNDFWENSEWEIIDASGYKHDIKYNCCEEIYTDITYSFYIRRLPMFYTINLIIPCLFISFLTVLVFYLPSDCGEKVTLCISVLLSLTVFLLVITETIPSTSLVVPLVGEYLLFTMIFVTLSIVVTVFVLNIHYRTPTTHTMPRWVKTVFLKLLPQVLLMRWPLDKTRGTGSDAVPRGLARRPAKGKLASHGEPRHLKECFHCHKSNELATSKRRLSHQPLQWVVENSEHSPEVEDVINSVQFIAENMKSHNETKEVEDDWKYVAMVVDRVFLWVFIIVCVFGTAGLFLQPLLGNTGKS
T1 sequence (P17787 26-502): as the sequence (P17787 26-502) above

C(=C\[C@H]1CCNC1)/c1cncnc1 [Compound 1, (R)-5-((E)-2-pyrrolidin-3-ylvinyl)pyrimidine]
agonist character [1]: partial agonist | agonist character [2]: full agonist | AUC % Extrap [3, 4]: 41.1% | Tmax [3, 4]: 1.2 h | AUC % Extrap ([3]; Mean, N=7, Day 29 dose after 28 days BID): 21.3% | AUC % Extrap ([3]; Median, N=7, Day 29 dose after 28 days BID): 23.3% | AUC % Extrap [3, 5]: 3.69% and 3.67% | AUCinf [3, 5]: 1.21 ng·h/mL | AUClast [3, 5]: 0.801 ng·h/mL | Cmax [3, 5]: 0.621 ng/mL | Tmax [3, 5]: 0.17 h | half-life [3, 5]: 0.852 h | half-life ([3]; human, plasma, inhaled or intranasal, […] Compound 1, 50 μL spray in each nostril, Mean, N=7, Day 29 single intranasal dose of […] Compound 1 (2.0% hemigalactarate salt) after 28 days BID, 50 μL per nostril, read-out: Half-life (converted)): 1.58 ± 0.818 h | Cmax ([3]; human, plasma, other: intranasal spray, […] Compound 1, 50 μL spray in each nostril, Max (individual subject maximum), N=7, Day 29 dose after 28 days BID, read-out: Cmax): 5.49 ng/mL | AUC(0-inf) [3, 6]: 12.5 ng·h/mL | AUC(0-t) [3, 6]: 12.1 ng·h/mL | half-life ([3]; human, plasma, other: intranasal spray, […] Compound 1, 50 μL spray in each nostril, Max, N=7, Day 29 dose after 28 days BID, read-out: Half-life (converted)): 2.83 h | AUC(0-inf) [3, 7]: 6.22 ± 4.63 ng·h/mL | AUC(0-t) [3, 7]: 5.22 ± 4.52 ng·h/mL | Cmax ([3]; human, plasma, other: intranasal spray, […] Compound 1, 50 μL spray in each nostril, Mean, N=7, Day 29 dose after 28 days BID, read-out: Cmax): 2.26 ± 1.96 ng/mL | Tmax ([3]; human, plasma, other: intranasal spray, […] Compound 1, 50 μL spray in each nostril, Mean, N=7, Day 29 dose after 28 days BID, read-out: Tmax): 0.7 h | AUC(0-inf) [3, 8]: 5.67 ng·h/mL | AUC(0-t) [3, 8]: 4.35 ng·h/mL | Cmax ([3]; human, plasma, other: intranasal spray, […] Compound 1, 50 μL spray in each nostril, Median, N=7, Day 29 dose after 28 days BID, read-out: Cmax): 1.35 ng/mL | half-life ([3]; human, plasma, other: intranasal spray, […] Compound 1, 50 μL spray in each nostril, Median, N=7, Day 29 dose after 28 days BID, read-out: Half-life (converted)): 1.12 h | Tmax ([3]; human, plasma, other: intranasal spray, […] Compound 1, 50 μL spray in each nostril, Median, N=7, Day 29 dose after 28 days BID, read-out: Tmax): 0.5 h | C0 ([3]; human, plasma, other: intranasal spray, […] Compound 1, 50 μL spray in each nostril, Day 29 predose after 28 days BID, detected in 4 out of 7 subjects, read-out: mean plasma concentration at time zero (predose)): 0.264 ng/mL | concentration at 1 h ([3]; human, plasma, other: intranasal spray, […] Compound 1, 50 μL spray in each nostril, at 1 h after intranasal administration on Day 29, read-out: peak of mean plasma exposure): 2.07 ng/mL | concentration at 24 h ([3]; human, plasma, other: intranasal spray, […] Compound 1, 50 μL spray in each nostril, no subject above lower limit of quantification, read-out: plasma concentration at 24 h post administration): < 0.2 ng/mL | fraction cleared from systemic circulation before the next administration ([3]; if administered every 12 hours (4 half-lives), from maximum individual half-life): > 94%
